Experimental data taken from publication PMC6826779, “Bis-allylic Deuterated DHA Alleviates Oxidative Stress in Retinal Epithelial Cells” (Antioxidants, 2019).

Key:
ARPE-19 cells [1] = assay: cells; format: cell-based; settings: ARPE-19, H2O2 treatment 600 µM in 1% FBSM
Procedure: ARPE-19 cells were obtained from ATCC, and maintained in Dulbecco’s Modified Eagle’s Medium (DMEM)/Ham F12 (GIBCO) containing 10% (v/v) fetal bovine serum (FBS) and 1% (v/v) penicillin/streptomycin under a humidified (95%)/CO2 (5%) atmosphere at 37 °C. For splitting and experiments, cells were dissociated with 0.25% trypsin-EDTA, re-suspended in the culture medium and then plated at 1–3 × 10^5 cells/mL. Cells were cultured and used up to a maximum of 10 passages.
(§1) Cell viability was determined by the MTT colorimetric assay. Cells were incubated for 2 h with MTT reagent (0.5 mg/mL). The absorbance at 570 nm and 655 nm of individual wells was measured using a microplate reader (BioRad 550). The percentage of viable cells was calculated as [(OD570 sample – OD655 sample)/(OD570 control – OD655 control)] × 100%.
ARPE-19 cells were plated into 96-well plates (3 × 10^4 cells/well) and cultured for 24 h to reach confluence before DHA treatment. The cells were treated in medium with 1% FBS (1% FBSM), or with H2O2 prepared in medium with FBS (1%, v/v) to a final concentration of 600 μM. Cells were then treated with DHA, D2-DHA and D4-DHA, at different concentrations (0–80 μm) for 24 h. Control cells were incubated with DMSO (0.2%). After 4 h, cell viability was determined in triplicate using the MTT colorimetric assay. Results were expressed in percentage of viable cells normalized with control conditions in the absence of PUFA and H2O2 stress.
Sigmoidal doses-responses linked to the toxicity were obtained using GraphPad prism software, allowing to calculate IC50 values described as the concentration leading to 50% of cell viability.

ARPE-19 cells [2] = assay: Protection of lipophenols against all-trans-retinal (MTT cell viability); format: cell-based; settings: ARPE-19, pretreatment 80 µM 1 h, trans-retinal 25 µM 4 h, MTT after 20 h
Procedure: as §1
ARPE-19 cells were plated into 96-well plates (3 × 10^4 cells/well) and cultured for 24 h to reach confluence before lipophenol treatment. Cells were treated with serum free medium containing lipophenols at different concentrations (0–80 μM) for 1 h. Then all-trans-retinal was added to a final concentration of 25 μM for 4 h (in DMF), before rinsing with medium. Cell viability was determined 16–20 h later, in triplicate samples, using the MTT colorimetric assay. Control cells were incubated with DMSO (0.2%) and DMF (0.14%). The data are expressed as the percentage of untreated cells (CTL, without all-trans-retinal).

ARPE-19 cells [3] = assay: Lipid peroxidation status with C11-Bodipy581/591 probe (FACS) under oxidative conditions; format: cell-based; settings: ARPE-19, 50 µM for 24 h
Procedure: ARPE-19 cells were plated into 2 cm^2 wells (2 × 10^5 cells/well) and cultured for 24 h to reach confluence before PUFA or lipophenol treatment. The cell cultures were treated with 1% FBSM containing tested compounds (deuterated DHAs or deuterated lipophenols) at 50 μM for 24 h and then rinsed with media before the incubation of 5 µM C11-Bodipy^581/591 for 30 min. Then, the cells were rinsed and treated with the different stressors, corresponding to different protocols. For chemical stress the cells were incubated with 400 µM of H2O2 during 24 h followed by FACS analysis. For photobleaching stress, the cells were exposed to a white LED lamp with an intensity of 5000 lux at room temperature during 1 h followed by the FACS analysis.
FACS was performed with the BD Accuri C6 Flow Cytometer and BD Accuri C6 Software for data acquisition (BD Biosciences). This flow cytometer is equipped with an excitation laser at 488 nm, and a fluorescence detector FL1 533/30 nm. Data were collected to 10,000 events for each sample using a flow rate of 35 µL/min. Parameters obtained for data analysis included: cell size from the forward scatter (FSC), granularity from the side scatter (SSC) and the green fluorescence of the stained cells with C11-Bodipy^581/591.
First the SSC-A versus FSC-A dot-plot was used to gate the cellular population and remove the cellular debris. Then the SSC-A versus SSC-H dot-plot was used to remove cell doublets in the previous gate to give a final gate. The cellular population in the last gate designed was plotted on count versus log green fluorescence to give the fluorescence mean intensity of FL1. The mean FL1 values were normalized to the cells only stained with C11-Bodipy^581/591.

15-sLOX [4] = target: T1, 15-sLOX (Glycine max, UniProt P08170); assay: Kinetics parameters of 15s-LOX (UV 270 nm, Michaelis-Menten); format: biochemical, Glycine max (soybean)
T1 sequence (P08170 1-839): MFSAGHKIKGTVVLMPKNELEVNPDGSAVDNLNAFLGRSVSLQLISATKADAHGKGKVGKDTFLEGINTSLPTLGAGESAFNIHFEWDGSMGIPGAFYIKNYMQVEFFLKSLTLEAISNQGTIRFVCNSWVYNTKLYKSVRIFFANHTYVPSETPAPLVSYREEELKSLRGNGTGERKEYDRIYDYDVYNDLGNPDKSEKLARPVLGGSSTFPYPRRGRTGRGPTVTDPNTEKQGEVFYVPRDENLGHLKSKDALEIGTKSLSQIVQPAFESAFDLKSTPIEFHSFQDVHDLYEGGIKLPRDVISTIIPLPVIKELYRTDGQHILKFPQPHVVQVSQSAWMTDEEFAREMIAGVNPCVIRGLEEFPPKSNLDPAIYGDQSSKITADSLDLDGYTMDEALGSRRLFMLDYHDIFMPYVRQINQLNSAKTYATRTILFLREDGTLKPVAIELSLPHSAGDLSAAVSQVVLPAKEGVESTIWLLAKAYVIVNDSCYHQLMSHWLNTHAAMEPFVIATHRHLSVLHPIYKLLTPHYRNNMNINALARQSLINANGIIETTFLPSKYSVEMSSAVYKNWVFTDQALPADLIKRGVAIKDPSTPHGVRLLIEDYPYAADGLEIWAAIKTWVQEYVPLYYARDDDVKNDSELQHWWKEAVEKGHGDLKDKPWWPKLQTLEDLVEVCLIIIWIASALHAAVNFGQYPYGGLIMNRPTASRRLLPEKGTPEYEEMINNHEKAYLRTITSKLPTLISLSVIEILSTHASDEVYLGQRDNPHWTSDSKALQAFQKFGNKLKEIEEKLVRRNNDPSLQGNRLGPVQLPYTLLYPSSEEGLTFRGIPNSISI
Procedure: The activity of 15-sLOX was monitored on a Beckman Coulter DU730 Life Sciences UV-visible spectrometer at a wavelength of 270 nm monitoring the conjugated triene structure in the dihydroxylation products. For the measurements a reaction mixture of DHA or deuterated DHA (0.02 mM; 0.04 mM; 0.1 mM and 0.2 mM) was prepared in 750 µL sodium borate buffer (50 mM, pH 9) by ultrasonification for 10 s. The reaction was subsequently initiated by the addition of 10 µL 15-sLOX (4 mg/mL) to make a total volume of 760 µL in a Hellma CEL2056 quartz cuvette with 1 cm path length (20 °C). The initial reaction rates (V(0)), derived from the recorded UV-absorbance using the law of Lambert-Beer (molar extinction coefficient = 40,000), were plotted against the respective DHA concentrations and fitted to Michaelis-Menten kinetics in GraphPad Prism 7.0. All V(0) values were determined in triplicate and the average of three independent experiments was plotted against the substrate concentrations to yield Michaelis-Menten kinetics.

15-sLOX [5] = target: T1, 15-sLOX; assay: LC-MS/MS of 15s-LOX oxidized samples (product profile); format: biochemical, Glycine max (soybean); settings: 0.1 mM substrate, 30 min reaction, room temperature
Procedure: In order to gain insights on the nature of the produced metabolites, LC-MS/MS analysis of the reaction products were carried out. To this end, the respective DHA variants (0.1 mM) were incubated in a 2 mL eppendorf tube with 10 µL 15-sLOX (4 mg/mL) in sodium borate buffer (50 mM, pH 9) for 30 min at room temperature and the reaction quenched by the addition of cold MeOH (760 µL). The hydroperoxides were reduced with the addition of aq. SnCl2 (50 µL, 5 mg/mL) and subsequently the mixture was centrifuged (16,100 ×g for 5 min). Water (2 mL) was added to the supernatant, followed by the dropwise addition of glacial acetic acid (40 µL). The products were purified by SPE using SepPak 200 mg C18 cartridges (3CC), according to published protocols. The methyl formate eluates were evaporated to dryness, dissolved in MeOH (0.5 mL) and stored at −80 °C until analysis. The resulting solution was diluted 1000 times with MeOH for LC-MS/MS measurements. To 120 µL water, 72 µL of MeOH, 4 µL of the diluted solution and 4 µL of an internal standard (15-HETE-d8, Leukotriene LTB4-d4 and DHA-d5) was added. The samples were loaded in a SIL-30AC autosampler and the analytes separated on a Kinetex 1.7 µm C18 100Å, 50 × 2.1 mm LC column as described. The detection of DHA metabolites was performed in selected ion monitoring mode using several traces in order to take the eventual loss of a deuterium atom into account. The following traces were used: m/z 327.2, 343.2, 359.2 and 375.2 for DHA and its metabolites, m/z 327.2, 328.2, 329.2, 344.2, 345.2, 360.2, 361.2, 376.2, 377.2 for D2-DHA, m/z 331.2, 345.3, 346.2, 361.2, 362.3, 363.2, 377.2, 378.2 and 379.2 for D4-DHA and m/z 337.2, 352.2, 353.2, 367.2, 368.2, 369.2, 383.2, 384.2 and 385.2 for D10-DHA. Tandem mass spectra were recorded as product ion scans. Quantification of the metabolites was done by calculating the area ratio between the analyte and the internal standard (DHA-d5 for non-hydroxylated, 15-HETE-d8 for mono-hydroxylated and LTB4-d4 for di-hydroxylated derivatives) using Multiquant version 3.0.2.

[6] = serum starvation (1% FBSM) 48 h

With `OO` [H2O2, Hydrogen peroxide, reference compound] the cell mortality (ARPE-19 cells [1]) was 60–70%.
`CC/C=C\C/C=C\C/C=C\C/C=C\C/C=C\C/C=C\CCC(=O)Oc1cc(O)cc(OC(C)C)c1` [IP-DHA] was tested, and the “increase in cell viability against all-trans-retinal” value (“increase in cell viability” for short) (ARPE-19 cells [2]) was 42%.
In the case of `[2H]C([2H])(C=CCC=CCC=CCC=CCC)C=CC([2H])([2H])C=CCCC(=O)Oc1cc(O)cc(OC(C)C)c1` [IP-D4-DHA, phloroglucinol-OiPr-O-(6,6,9,9-D4)-DHA], the “lipid peroxidation status (C11-BODIPY fluorescence)” value (shortened to “lipid peroxidation status”) (ARPE-19 cells [3]; serum starvation (1% FBSM) 24 h) is reported as “decreased lipid peroxidation compared to IP-DHA and IP-D2-DHA”, the “lipid peroxidation status” value (ARPE-19 cells [3]; [6]) is reported as “slight but significant decrease in lipid peroxidation” and the “lipid peroxidation status” value (ARPE-19 cells [3]; then H2O2 400 µM 24 h) is reported as “decreased the lipid peroxidation status relative to IP-DHA and IP-D2-DHA”. For the same compound, the “lipid peroxidation status” value (ARPE-19 cells [3]; then photobleaching (white light, 5000 lux, 1 h)) was “reduction of lipid oxidation” and the “increase in cell viability” value (ARPE-19 cells [2]) was 47%.
For `[2H]C([2H])(/C=C\CC)/C=C\C([2H])([2H])/C=C\C([2H])([2H])/C=C\C([2H])([2H])/C=C\C([2H])([2H])/C=C\CCC(=O)O` [D10-DHA], the “fold decrease in the Vmax value” (15-sLOX [4]; 15s-LOX, compared with the other DHAs) was “more than 10 fold”, the “15s-LOX activity for the double hydroxylation product” value (15-sLOX [4]; monitored at 270 nm) was “significantly reduced activity” and the “pre-dominant product of 15-sLOX oxidation (LC-MS)” value (15-sLOX [5]) was “vast excess obtained for 17S-HDHA”.
For `[2H]C([2H])(/C=C\C/C=C\C/C=C\C/C=C\C/C=C\CC)/C=C\CCC(=O)Oc1cc(O)cc(OC(C)C)c1` [IP-D2-DHA, phloroglucinol-OiPr-O-(6,6-D2)-DHA], the “lipid peroxidation status” value (ARPE-19 cells [3]; [6]) was “slight but significant decrease in lipid peroxidation” and the “increase in cell viability” value (ARPE-19 cells [2]) was 52%.
`CC/C=C\C/C=C\C/C=C\C/C=C\C/C=C\C/C=C\CCC(=O)O` [D10-DHA] showed a Km (15-sLOX [4]; 15s-LOX, substrate 0.02-0.2 mM, borate buffer pH 9, 20 °C, 270 nm) of 3.27 µM.
